According to patent US20230159436A1, “APPLICATIONS OF AMIDE ANALOGS OF TRITERPENES IN CURES OF CANCER AND OTHER DISEASES” (Pacific Arrow Limited, priority 2021, published 2023):

Test system: U2OS, H460, HTB-9, ES2, HCT116, Capan, OVCAR3, DU145, SK-Mel-5, KB, A498, MCF-7, HepG2, T98G, K562, HeLa
Test: MTT Cytotoxic Assay of reaction products and isolated compounds
Assay type: cell-based
Description: The peaks, fractions and compounds are selected according to the activities of times studies and the changes of peaks. Selecting the HPLC fractions for isolation is according to the cytotoxic activity of the reaction product obtained at a specific time. The compounds having strong to weak activities are selected and isolated. Selecting the HPLC fractions for isolation may be according to the cytotoxic activity of times studies and the change of peaks. The anti cancer activities are the MTT studies of bone (U2OS), lung (H460), bladder (HTB-9), ovary (ES2), colon (HCT116), pancreas (Capan), ovary (OVCAR3), prostate (DU145), skin (SK-Mel-5), mouth (KB), kidney (A498), breast (MCF-7), liver (HepG2), brain (T98G), luekemia (K562), cervix (HeLa).
Esterification, amidation, amination, or sulfonamidation of compound (A), (B), (C), (D1), (D2), (E), (F), (G), (H1), (H2), E4A, E4A2Y, E4D, E4D1, (P1), P(2), terpene, isoprene, triterpenes, hydroxylated triterpenes, with acyl halide, wherein the halide comprise chloride, bromide, fluoride and iodide, wherein the acyl halide comprise acyl chloride, wherein acyl chloride comprise tigloyl chloride, angeloyl chloride, acetyl chloride, crotonoyl chloride, 3,3-dimethylartyloyl chloride, senecioyl chloride, cinnamoyl chloride, pentenoyl chloride, hexanoyl chloride, benzoyl chloride, ethylbutyryl chloride, propionyl chloride, 2-propenoyl chloride, isobutyryl chloride, butyryl chloride, (2E)-2-pentenoyl chloride, 4-Pentenoyl chloride, 5-hexenoyl chloride, heptanoyl chloride, octanoyl chloride, nonanoyl chloride, decanoyl chloride, Lauroyl chloride, myristoyl chloride, oleoyl chloride. The compounds vary in composition when the time or temperature of the reaction is changed. The peaks, fractions and compounds are selected according to the activities of times studies and the changes of peaks. The compounds having strong to weak activities are selected and isolated. The anti cancer activities (Cytotoxic Assay) are the MTT studies of bone (U2OS), lung (H460), bladder (HTB-9), ovary (ES2), colon (HCT116), pancreas (Capan), ovary (OVCAR3), prostate (DU145), skin (SK-Mel-5), mouth (KB), kidney (A498), breast (MCF-7), liver (HepG2), brain (T98G), luekemia (K562), cervix (HeLa). The active esterification, amidation, amination, or sulfonamidation products are purified with HPLC. The reaction product of mixtures and individual compounds are tested with MTT Cytotoxic Assay. Details of method are in Experiment 3 of the present application. A second esterification of compound can be selected from the above experiment results to produce new active compounds. A partial esterification compound is selected from the above experiments to perform a second or repeated with a third esterification with different acyl chloride in order to produce new active compounds with the experiments in the present application. The active compounds of this invention are triterpenes in form of amine, sulfonamides, amide, and urea analogs, providing extremely stable activity in solution. They prolong the activities and duration of drug in a subject.
Cells. HTB-9 (bladder), HeLa-S3 (cervix), DU145 (prostate), H460 (lung), MCF-7 (breast), K562 (leukemia), HCT116 (colon), HepG2 (liver), U2OS (bone), T98G (brain), SK-MEL-5 (Skin) and OVCAR 3, ES2 (ovary), Pancreas (Capan), Mouth (KB), Kidney (A498).
MTT Assay. The procedure for MTT assay followed the method described by Carmichael et al. (1987) with modifications. The cells were seeded into a 96-well plate at for 24 hours before drug-treatment. The cells were then exposed to the drugs for 48, 72, or 96 hours. After the drug-treatment, MTT (0.5 mg/mL) was added to cultures and incubated for an hour. The formazan (product of the reduction of tetrazolium by viable cells) formed and was dissolved with DMSO and the O.D. at 490 nm, and was measured by an ELISA reader. The MTT level of the cells before drug-treatment was also measured (T0). […]

SMILES	Cytotoxicity activity
CC=CC(=O)NCC1(C)C(N)CCC2(C)C1CCC1(C)C2CC=C2C3CC(C)(C)C(N)C(N)C3(CNC(=O)C=CC)C(N)CC21C (centres unmarked) [II 1]	moderate
CC(C)=CC(=O)NCC1(C)C(N)CCC2(C)C1CCC1(C)C2CC=C2C3CC(C)(C)C(N)C(N)C3(CNC(=O)C=C(C)C)C(N)CC21C (centres unmarked) [BB1]	moderate
C=CC(=O)NCC1(C)C(N)CCC2(C)C1CCC1(C)C2CC=C2C3CC(C)(C)C(NC(=O)C=C)C(N)C3(CN)C(N)CC21C (centres unmarked) [MM3]	moderate
CC(C)C(=O)NCC1(C)C(N)CCC2(C)C1CCC1(C)C2CC=C2C3CC(C)(C)C(NC(=O)C(C)C)C(N)C3(CN)C(N)CC21C (centres unmarked) [NN3]	moderate
CC=CC(=O)NCC1(C)C(O)CCC2(C)C1CCC1(C)C2CC=C2C3CC(C)(C)C(O)C(O)C3(CNC(=O)C=CC)C(O)CC21C (centres unmarked) [I I2]	strong
CCC(CC)C(=O)NCC1(C)C(N)CCC2(C)C1CCC1(C)C2CC=C2C3CC(C)(C)C(NC(=O)C(CC)CC)C(N)C3(CN)C(N)CC21C (centres unmarked) [EE3]	moderate
CC(C)=CC(=O)NCC1(C)C(O)CCC2(C)C1CCC1(C)C2CC=C2C3CC(C)(C)C(O)C(O)C3(CNC(=O)C=C(C)C)C(O)CC21C (centres unmarked) [BB2]	strong
CCCCCC(=O)NCC1(C)C(N)CCC2(C)C1CCC1(C)C2CC=C2C3CC(C)(C)C(NC(=O)CCCCC)C(N)C3(CNC(=O)CCCCC)C(N)CC21C (centres unmarked) [DD4]	weak
CC(C)C(=O)NCC1(C)C(N)CCC2(C)C1CCC1(C)C2CC=C2C3CC(C)(C)C(N)C(N)C3(CNC(=O)C(C)C)C(N)CC21C (centres unmarked) [NN1]	moderate
CC(=O)NCC1(C)C(N)CCC2(C)C1CCC1(C)C2CC=C2C3CC(C)(C)C(N)C(N)C3(CNC(C)=O)C(N)CC21C (centres unmarked) [HH1]	moderate
CC1(C)CC2C3=CCC4C5(C)CCC(N)C(C)(CNC(=O)c6ccccc6)C5CCC4(C)C3(C)CC(N)C2(CN)C(N)C1NC(=O)c1ccccc1 (centres unmarked) [KK3]	moderate
CCC(=O)NCC1(C)C(N)CCC2(C)C1CCC1(C)C2CC=C2C3CC(C)(C)C(NC(=O)CC)C(N)C3(CNC(=O)CC)C(N)CC21C (centres unmarked) [LL4]	weak
C=CCCC(=O)NCC1(C)C(N)CCC2(C)C1CCC1(C)C2CC=C2C3CC(C)(C)C(NC(=O)CCC=C)C(N)C3(CN)C(N)CC21C (centres unmarked) [CC3]	moderate
CC1(C)CC2C3=CCC4C5(C)CCC(N)C(C)(CNC(=O)c6ccccc6)C5CCC4(C)C3(C)CC(N)C2(CNC(=O)c2ccccc2)C(N)C1NC(=O)c1ccccc1 (centres unmarked) [KK4]	weak
C=CC(=O)NCC1(C)C(O)CCC2(C)C1CCC1(C)C2CC=C2C3CC(C)(C)C(O)C(O)C3(CNC(=O)C=C)C(O)CC21C (centres unmarked) [MM2]	strong
C=CC(=O)NCC1(C)C(N)CCC2(C)C1CCC1(C)C2CC=C2C3CC(C)(C)C(NC(=O)C=C)C(N)C3(CNC(=O)C=C)C(N)CC21C (centres unmarked) [MM4]	weak
CC=C(C)C(=O)NCC1(C)C(O)CCC2(C)C1CCC1(C)C2CC=C2C3CC(C)(C)C(O)C(O)C3(CNC(=O)C(C)=CC)C(O)CC21C (centres unmarked) [AA2]	strong
CC1(C)CC2C3=CCC4C5(C)CCC(O)C(C)(CNC(=O)C=Cc6ccccc6)C5CCC4(C)C3(C)CC(O)C2(CNC(=O)C=Cc2ccccc2)C(O)C1O (centres unmarked) [JJ2]	strong
CCCC(=O)NCC1(C)C(N)CCC2(C)C1CCC1(C)C2CC=C2C3CC(C)(C)C(NC(=O)CCC)C(N)C3(CNC(=O)CCC)C(N)CC21C (centres unmarked) [PP4]	weak
CCC(CC)C(=O)NCC1(C)C(O)CCC2(C)C1CCC1(C)C2CC=C2C3CC(C)(C)C(O)C(O)C3(CNC(=O)C(CC)CC)C(O)CC21C (centres unmarked) [EE2]	strong
CC=CC(=O)NCC1(C)C(N)CCC2(C)C1CCC1(C)C2CC=C2C3CC(C)(C)C(NC(=O)C=CC)C(N)C3(CNC(=O)C=CC)C(N)CC21C (centres unmarked) [II 4]	weak

SMILES	Cytotoxicity activity
CCCC(=O)NCC1(C)C(N)CCC2(C)C1CCC1(C)C2CC=C2C3CC(C)(C)C(N)C(N)C3(CNC(=O)CCC)C(N)CC21C (centres unmarked) [PP1]	moderate
CC1(C)CC2C3=CCC4C5(C)CCC(N)C(C)(CNC(=O)C=Cc6ccccc6)C5CCC4(C)C3(C)CC(N)C2(CN)C(N)C1NC(=O)C=Cc1ccccc1 (centres unmarked) [JJ3]	moderate
CCC(=O)NCC1(C)C(O)CCC2(C)C1CCC1(C)C2CC=C2C3CC(C)(C)C(O)C(O)C3(CNC(=O)CC)C(O)CC21C (centres unmarked) [LL2]	strong
CCC(CC)C(=O)NCC1(C)C(N)CCC2(C)C1CCC1(C)C2CC=C2C3CC(C)(C)C(N)C(N)C3(CNC(=O)C(CC)CC)C(N)CC21C (centres unmarked) [EE1]	moderate
CCC(CC)C(=O)NCC1(C)C(N)CCC2(C)C1CCC1(C)C2CC=C2C3CC(C)(C)C(NC(=O)C(CC)CC)C(N)C3(CNC(=O)C(CC)CC)C(N)CC21C (centres unmarked) [EE4]	weak
CCC(=O)NCC1(C)C(N)CCC2(C)C1CCC1(C)C2CC=C2C3CC(C)(C)C(NC(=O)CC)C(N)C3(CN)C(N)CC21C (centres unmarked) [LL3]	moderate
CC=C(C)C(=O)NCC1(C)C(N)CCC2(C)C1CCC1(C)C2CC=C2C3CC(C)(C)C(NC(=O)C(C)=CC)C(N)C3(CNC(=O)C(C)=CC)C(N)CC21C (centres unmarked) [AA4]	weak
CCC(=O)NCC1(C)C(N)CCC2(C)C1CCC1(C)C2CC=C2C3CC(C)(C)C(N)C(N)C3(CNC(=O)CC)C(N)CC21C (centres unmarked) [LL1]	moderate
CC(=O)NCC1(C)C(O)CCC2(C)C1CCC1(C)C2CC=C2C3CC(C)(C)C(O)C(O)C3(CNC(C)=O)C(O)CC21C (centres unmarked) [HH2]	strong
CC=C(C)C(=O)NCC1(C)C(N)CCC2(C)C1CCC1(C)C2CC=C2C3CC(C)(C)C(NC(=O)C(C)=CC)C(N)C3(CN)C(N)CC21C (centres unmarked) [AA3]	moderate
C=CCCC(=O)NCC1(C)C(O)CCC2(C)C1CCC1(C)C2CC=C2C3CC(C)(C)C(O)C(O)C3(CNC(=O)CCC=C)C(O)CC21C (centres unmarked) [CC2]	strong
C=CCCC(=O)NCC1(C)C(N)CCC2(C)C1CCC1(C)C2CC=C2C3CC(C)(C)C(NC(=O)CCC=C)C(N)C3(CNC(=O)CCC=C)C(N)CC21C (centres unmarked) [CC4]	weak
CC(C)C(=O)NCC1(C)C(O)CCC2(C)C1CCC1(C)C2CC=C2C3CC(C)(C)C(O)C(O)C3(CNC(=O)C(C)C)C(O)CC21C (centres unmarked) [NN2]	strong
CC=C(C)C(=O)NCC1(C)C(N)CCC2(C)C1CCC1(C)C2CC=C2C3CC(C)(C)C(N)C(N)C3(CNC(=O)C(C)=CC)C(N)CC21C (centres unmarked) [AA1]	moderate
CCC=CC(=O)NCC1(C)C(O)CCC2(C)C1CCC1(C)C2CC=C2C3CC(C)(C)C(O)C(O)C3(CNC(=O)C=CCC)C(O)CC21C (centres unmarked) [QQ2]	strong
CC(=O)NCC1(C)C(N)CCC2(C)C1CCC1(C)C2CC=C2C3CC(C)(C)C(NC(C)=O)C(N)C3(CNC(C)=O)C(N)CC21C (centres unmarked) [HH4]	weak
CC(C)=CC(=O)NCC1(C)C(N)CCC2(C)C1CCC1(C)C2CC=C2C3CC(C)(C)C(NC(=O)C=C(C)C)C(N)C3(CN)C(N)CC21C (centres unmarked) [BB3]	moderate
CCCC(=O)NCC1(C)C(O)CCC2(C)C1CCC1(C)C2CC=C2C3CC(C)(C)C(O)C(O)C3(CNC(=O)CCC)C(O)CC21C (centres unmarked) [PP2]	strong
CCCCCC(=O)NCC1(C)C(O)CCC2(C)C1CCC1(C)C2CC=C2C3CC(C)(C)C(O)C(O)C3(CNC(=O)CCCCC)C(O)CC21C (centres unmarked) [DD2]	strong
CCCC(=O)NCC1(C)C(N)CCC2(C)C1CCC1(C)C2CC=C2C3CC(C)(C)C(NC(=O)CCC)C(N)C3(CN)C(N)CC21C (centres unmarked) [PP3]	moderate
